# Data reported in patent publication US20070249560A1, “Hydrolysis resistant organomodified silyated surfactants” (priority 2006, published 2007).
# Tests used:
# [1] = Surface tension, Kruss surface tensiometer; type: physicochemical; details: 0.1 wt % in 0.005M NaCl water
# Experimental: Surface tension was measured using a Kruss surface tensiometer, with a sand blasted platinum blade as the sensor. Solutions of the various components were prepared at 0.1 wt % in 0.005M NaCl water (deionized), as an equilibrium aid.
# [2] = Spreading of 10 μL droplet on polystyrene Petri dishes; type: physicochemical; details: 30 seconds
# Experimental: Spreading was determined by applying a 10 μL droplet, of surfactant solution to polystyrene Petri dishes (Fisher Scientific) and measuring the spread diameter (mm) after 30 seconds, at a relative humidity between 50 and 70% (at 22 to 25° C.). The solution was applied with an automatic pipette to provide droplets of reproducible volume. Deionized water that was further purified with a Millipore filtration system was used to prepare the surfactant solutions.
Surface Tension [1] [mN/m],Spread Diameter (mm) ([2]; 0.05% weight surfactant),Spread Diameter (mm) ([2]; 0.1% weight surfactant),Spread Diameter (mm) ([2]; 0.3% weight surfactant),Spread Diameter (mm) ([2]; 0.5% weight surfactant),Compound
27.7,–,7,–,7,C[Si](C)(C)C[Si](C)(C)CCCOCCOCCOCCOCCOCCOCCOCCOCCOCCOCCOCCO [Product 8]
26.7,–,7,–,7,C[Si](C)(C)CC[Si](C)(C)CCCOCCOCCOCCOCCOCCOCCOCCOCCOCCOCCOCCO [Product 9]

# Second part, the compound before the results:
Compound,Surface Tension [1] [mN/m],Spread Diameter (mm) ([2]; 0.05% weight surfactant),Spread Diameter (mm) ([2]; 0.1% weight surfactant),Spread Diameter (mm) ([2]; 0.3% weight surfactant),Spread Diameter (mm) ([2]; 0.5% weight surfactant)
C[Si](C)(C)C[Si](C)(C)CCCOCCOCCOCCOCCO [Product 6],22.5,40,45,53,47
C[Si](C)(C)CC[Si](C)(C)CCCOCCOCCOCCOCCO [Product 7],22.7,30,42,48,49
"Octylphenolethoxylate, containing 10 polyoxyethylene units [OPE, reference compound]",31.8,–,9,–,10
